{"source": "ChEMBL document CHEMBL1649130", "about": "“In vitro activity of Iclaprim against respiratory and bacteremic isolates of Streptococcus pneumoniae” (Antimicrob Agents Chemother, 2009)", "key": {"[1]": {"system": "Streptococcus pneumoniae", "assay": "Antimicrobial activity against compound-intermediate Streptococcus pneumoniae by broth microdilution method"}, "[2]": {"system": "Streptococcus pneumoniae", "assay": "Antimicrobial activity against Streptococcus pneumoniae assessed as resistant isolates broth microdilution method", "assay_type": "functional"}, "[3]": {"system": "Streptococcus pneumoniae", "assay": "Antimicrobial activity against compound-resistant Streptococcus pneumoniae by broth microdilution method"}, "[4]": {"system": "Streptococcus pneumoniae", "assay": "Antimicrobial activity against compound-susceptible Streptococcus pneumoniae by broth microdilution method"}, "[5]": {"assay": "Drug concentration in alveolar macrophages of patient with Streptococcus pneumoniae infections at 1.6 mg/kg, iv administered as single 60 mins infusion measured after 1 to 2 hrs", "assay_type": "ADME, organism-based, Macrophage", "set-up": "dose 1.6 mg/kg, route intravenous", "conditions": "human, in vivo"}, "[6]": {"system": "Streptococcus pneumoniae", "assay": "Antimicrobial activity against SXT-susceptible Streptococcus pneumoniae by broth microdilution method", "assay_type": "functional"}, "[7]": {"system": "Streptococcus pneumoniae", "assay": "Antimicrobial activity against Doxycycline-susceptible Streptococcus pneumoniae by broth microdilution method", "assay_type": "functional"}, "[8]": {"assay": "Drug concentration in epithelial lining fluid of patient with Streptococcus pneumoniae infections at 1.6 mg/kg, iv administered as single 60 mins infusion measured after 1 to 2 hrs", "assay_type": "ADME, organism-based", "set-up": "dose 1.6 mg/kg, route intravenous", "conditions": "human, in vivo"}, "[9]": {"assay": "Drug concentration in epithelial lining fluid of patient with Streptococcus pneumoniae infections at 1.6 mg/kg, iv administered as single 60 mins infusion measured after 5.5 to 7 hrs", "assay_type": "ADME, organism-based", "set-up": "dose 1.6 mg/kg, route intravenous", "conditions": "human, in vivo"}, "[10]": {"system": "Streptococcus pneumoniae", "assay": "Antimicrobial activity against penicillin-susceptible Streptococcus pneumoniae by broth microdilution method", "assay_type": "functional"}, "[11]": {"assay": "Drug concentration in alveolar macrophages of patient with Streptococcus pneumoniae infections at 1.6 mg/kg, iv administered as single 60 mins infusion measured after 5.5 to 7 hrs", "assay_type": "ADME, organism-based, Macrophage", "set-up": "dose 1.6 mg/kg, route intravenous", "conditions": "human, in vivo"}, "[12]": {"assay": "Drug concentration in epithelial lining fluid of patient with Streptococcus pneumoniae infections at 1.6 mg/kg, iv administered as single 60 mins infusion measured after 3 to 4 hrs", "assay_type": "ADME, organism-based", "set-up": "dose 1.6 mg/kg, route intravenous", "conditions": "human, in vivo"}, "[13]": {"assay": "Drug concentration in alveolar macrophages of patient with Streptococcus pneumoniae infections at 1.6 mg/kg, iv administered as single 60 mins infusion measured after 3 to 4 hrs", "assay_type": "ADME, organism-based, Macrophage", "set-up": "dose 1.6 mg/kg, route intravenous", "conditions": "human, in vivo"}, "[14]": {"system": "Streptococcus pneumoniae", "assay": "Antimicrobial activity against Ciprofloxacin-susceptible Streptococcus pneumoniae by broth microdilution method", "assay_type": "functional"}, "[15]": {"conditions": "Streptococcus pneumoniae, read-out: MIC50"}}, "data": [{"smiles": "O=C(O)c1cn(C2CC2)c2cc(N3CCNCC3)c(F)cc2c1=O", "note": "[CIPROFLOXACIN]", "values": [{"measurement": "MIC", "setting": "[1]", "result": 2, "unit": "µg/mL"}, {"measurement": "Activity", "setting": "[2]", "result": 1.7, "unit": "%"}, {"measurement": "MIC", "setting": "[3]", "result": "≥ 4", "unit": "µg/mL"}, {"measurement": "MIC", "setting": "[4]", "result": "≤ 1", "unit": "µg/mL"}]}, {"smiles": "CC[C@H]1OC(=O)[C@H](C)[C@@H](O[C@H]2C[C@@](C)(OC)[C@@H](O)[C@H](C)O2)[C@H](C)[C@@H](O[C@@H]2O[C@H](C)C[C@H](N(C)C)[C@H]2O)[C@](C)(OC)C[C@@H](C)C(=O)[C@H](C)[C@@H](O)[C@]1(C)O", "note": "[CLARITHROMYCIN]", "values": [{"measurement": "Activity", "setting": "[2]", "result": 11.8, "unit": "%"}]}, {"smiles": "C[C@H]1c2cccc(O)c2C(=O)C2=C(O)[C@]3(O)C(=O)C(C(N)=O)=C(O)[C@@H](N(C)C)[C@@H]3[C@@H](O)[C@@H]21.O", "note": "[DOXYCYCLINE]", "values": [{"measurement": "Activity", "setting": "[2]", "result": 0.9, "unit": "%"}]}, {"smiles": "COc1cc(Cc2cnc(N)nc2N)c2c(c1OC)OC(C1CC1)C=C2", "note": "(stereo unspecified) [ICLAPRIM]", "values": [{"measurement": "Drug uptake", "setting": "[5]", "result": 24.5, "unit": "µg/mL"}, {"measurement": "MIC50", "setting": "[6]", "result": 0.06, "unit": "µg/mL"}, {"measurement": "MIC50", "setting": "[6]; [15]", "result": "≤ 0.03", "unit": "µg/mL"}, {"measurement": "MIC50", "setting": "[7]", "result": 0.06, "unit": "µg/mL"}, {"measurement": "MIC50", "setting": "[7]; [15]", "result": "≤ 0.03", "unit": "µg/mL"}, {"measurement": "Drug uptake", "setting": "[8]", "result": 12.61, "unit": "µg/mL"}, {"measurement": "Drug uptake", "setting": "[9]", "result": 2.66, "unit": "µg/mL"}, {"measurement": "MIC50", "setting": "[10]", "result": 0.06, "unit": "µg/mL"}, {"measurement": "MIC50", "setting": "[10]; [15]", "result": "≤ 0.03", "unit": "µg/mL"}, {"measurement": "Drug uptake", "setting": "[11]", "result": 5.28, "unit": "µg/mL"}, {"measurement": "Drug uptake", "setting": "[12]", "result": 6.38, "unit": "µg/mL"}, {"measurement": "Drug uptake", "setting": "[13]", "result": 7.16, "unit": "µg/mL"}, {"measurement": "MIC50", "setting": "[14]", "result": 0.06, "unit": "µg/mL"}, {"measurement": "MIC50", "setting": "[14]; [15]", "result": "≤ 0.03", "unit": "µg/mL"}]}, {"smiles": "CC1(C)S[C@@H]2[C@H](NC(=O)Cc3ccccc3)C(=O)N2[C@H]1C(=O)O", "note": "[PENICILLIN G]", "values": [{"measurement": "Activity", "setting": "[2]", "result": 6.8, "unit": "%"}]}]}
